According to patent publication US5958952A, “Substituted phenylamindines, medicaments containing these compounds and process for producing them” (Dr. Karl Thomae GmbH, priority 1995, dated 1999):

What was measured:
[1] = molecular target: human thrombocytes; assay: Inhibiting the binding of ^3 H-BIBU 52 to human thrombocytes; conditions: human thrombocytes in plasma; ^3 H-BIBU 52 final concentration 5 nM; ambient temperature, 20 minutes; read-out: ^3 H-BIBU-52-binding test IC50
Experimental: 1. Inhibiting the Binding of ^3 H-BIBU 52 to Human Thrombocytes:
A suspension of human thrombocytes in plasma is incubated with ^3 H-BIBU 52 [=(3S,5S)-5-[(4'-amidino-4-biphenylyl)oxymethyl]-3-[(carboxy)methyl]-2-pyrrolidinone[3-^3 H-4-biphenylyl]], replacing the ligand ^125 I-fibrinogen known from the literature, (cf. DE-A-4,214.245) and various concentrations of the substance to be tested. The free and bound ligand is separated off by centrifuging and quantitatively determined by scintillation counting. From the results obtained, the inhibition of ^3 H-BIBU 52 binding by the test substance is determined.
In order to do this, donor blood is taken from an anticubital vein and anticoagulated with trisodium citrate (final concentration 13 mM). The blood is centrifuged for 10 minutes at 170×g and the supernatant platelet-rich plasma (PRP) is removed. The residual blood is sharply centrifuged off once more in order to obtain plasma. The PRP is diluted 1:10 with autologous plasma. 750 μl are incubated with 50 μl of physiological saline, 100 μl of test substance solution, 50 μl of ^14 C sucrose (3.700 Bq) and 50 μl of ^3 H-BIBU 52 (final concentration: 5 nM) at ambient temperature for 20 minutes. […] 100 μl of it are measured in order to determine the free ligand. The pellet is dissolved in 500 μl of 0.2N NaOH, 450 μl are mixed with 2 ml of scintillator and 25 μl of 5N HCl and measured. […]

[2] = tested on: thrombocyte aggregation; assay: Antithrombotic activity: inhibition of collagen-induced platelet (thrombocyte) aggregation in platelet-rich plasma; assay type: cell-based; conditions: Homo sapiens, 10 min, platelet-rich plasma from healthy test subjects, incubated with substance at 37° C. for 10 minutes, 50% change in optical density
Experimental: 2. Antithrombotic Activity:
The thrombocyte aggregation is measured by the Born and Cross method (J. Physiol. 170, 397 (1964)) in platelet-rich plasma from healthy test subjects. To inhibit clotting, the blood is mixed with 3.14% sodium citrate in a ratio by volume of 1:10.
Collagen-Induced Aggregation
The progress of the decrease in optical density of the platelet suspension is measured photometrically after the addition of the aggregation-triggering substance and recorded. The rate of aggregation is calculated from the angle of inclination of the density curve. The point on the curve at which there is greatest light permeability is used to calculate the optical density.
The quantity of collagen is selected to be as small as possible but still sufficient to produce an irreversible reaction curve. The standard commercial collagen made by Hormonchemie of Munich is used.
Before the collagen is added, the plasma is incubated with the substance at 37° C. for 10 minutes.
From the measurements obtained, an EC50 was determined graphically corresponding to a 50% change in the optical density in terms of inhibiting aggregation.

SMILES	IC50 [1]	EC50 [2]
N=C(N)c1ccc(NC(=O)CCN2CCC(CC(=O)O)CC2)cc1 [1(1), 1-[2-[(4-amidinophenyl)aminocarbonyl]ethyl]-4-carboxymethyl-piperidine]	51 nM	310 nM
N=C(N)c1ccc(NC(=O)CCC2CCN(CC(=O)O)CC2)cc1 [Example 1, 4-[2-[(4-amidinophenyl)aminocarbonyl]ethyl]-1-carboxymethyl-piperidine]	3.7 nM	37 nM
